The values below come from US11746100B2 (GLOBAL BLOOD THERAPEUTICS, INC., priority 2020, dated 2023).

The assay has as its target T1, human ferroportin (Homo sapiens, UniProt Q9NP59).
T1 construct: luciferase reporter (read with the Nano-Glo Luciferase Assay System); expressed in transfected cells; host or cells: CHO cells, stably transfected, expression induced with doxycycline
T1 sequence (Q9NP59 1-571): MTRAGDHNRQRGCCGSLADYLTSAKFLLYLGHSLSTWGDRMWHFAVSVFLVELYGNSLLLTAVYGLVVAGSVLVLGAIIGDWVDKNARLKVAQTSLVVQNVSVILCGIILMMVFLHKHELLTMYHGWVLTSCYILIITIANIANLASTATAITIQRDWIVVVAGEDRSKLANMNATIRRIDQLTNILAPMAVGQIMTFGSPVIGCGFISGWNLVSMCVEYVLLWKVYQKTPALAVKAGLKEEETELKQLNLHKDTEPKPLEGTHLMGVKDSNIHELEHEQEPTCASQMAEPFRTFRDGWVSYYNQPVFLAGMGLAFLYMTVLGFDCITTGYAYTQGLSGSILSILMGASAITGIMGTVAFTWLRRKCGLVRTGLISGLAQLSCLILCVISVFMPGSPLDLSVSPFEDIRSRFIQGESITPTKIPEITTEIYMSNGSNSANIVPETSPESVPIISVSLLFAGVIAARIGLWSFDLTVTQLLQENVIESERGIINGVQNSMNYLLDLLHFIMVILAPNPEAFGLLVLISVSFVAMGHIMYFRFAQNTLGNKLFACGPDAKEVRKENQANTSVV
Description: Biological in-vitro ferroportin internalization assay (luciferase reporter). To be noted: average pEC50; stably-transfected CHO cell line expressing human ferroportin tagged to a luciferase reporter; 6 h incubation with test compound. It is filed as cell-based. Summed up:
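Stably transfected CHO cells expressing luciferase-tagged human ferroportin, plated 24 h with ferric ammonium citrate and induced with doxycycline for 24 h. Compounds incubated 6 h, then luciferase activity measured by Nano-Glo; average pEC50 reported.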
Background: In a reporter assay the amount or activity of a reporter protein is the signal.

The pEC50 is −log10 of the EC50, conventionally taken in molar units. A lower pEC50 goes with a high EC50. `CN(CC(=O)Nc1cccc(F)c1)c1nc(-c2cc(OCC(C)(C)O)ccn2)nc2c1CCC2` [Compound 280, N-(3-fluorophenyl)-2-({2-[4-(2-hydroxy-2-methylpropoxy)pyridin-2-yl]-5H,6H,7H-cyclopenta[d]pyrimidin-4-yl}(methyl)amino)acetamide] registered a pEC50 of 8.3.

Take `COc1ccnc(-c2nc3c(c(N(C)CC(=O)Nc4ccc(=O)n(C)c4)n2)CCC3)c1` [Compound 281, 2-{[2-(4-methoxypyridin-2-yl)-5H,6H,7H-cyclopenta[d]pyrimidin-4-yl](methyl)amino}-N-(1-methyl-6-oxo-1,6-dihydropyridin-3-yl)acetamide]: the pEC50 is listed as 7.3.

`CN(CC(=O)Nc1cccc(F)c1)c1nc(-c2cc3c(cn2)OCCO3)nc2c1CCC2` [Compound 282, 2-[(2-{2H,3H-[1,4]dioxino[2,3-c]pyridin-7-yl}-5H,6H,7H-cyclopenta[d]pyrimidin-4-yl)(methyl)amino]-N-(3-fluorophenyl)acetamide] showed a pEC50 of 7.5.

`CN(CC(=O)Nc1cncc(OC(F)(F)F)c1)c1nc(-c2cc3ccccc3cn2)nc2c1CCC2` [Compound 283, 2-{[2-(isoquinolin-3-yl)-5H,6H,7H-cyclopenta[d]pyrimidin-4-yl](methyl)amino}-N-[5-(trifluoromethoxy)pyridin-3-yl]acetamide] yielded a pEC50 of 6.6.

`Cc1cnc(NC(=O)CN(C)c2nc(-c3cc(OCCO)ccn3)nc3c2CCC3)cn1` [Compound 284, 2-({2-[4-(2-hydroxyethoxy)pyridin-2-yl]-5H,6H,7H-cyclopenta[d]pyrimidin-4-yl}(methyl)amino)-N-(5-methylpyrazin-2-yl)acetamide] had a pEC50 of 7.7.

As for `COc1ccc(NC(=O)CN(C)c2nc(-c3cc(OCCO)ccn3)nc3c2CCC3)nn1` [Compound 285, 2-({2-[4-(2-hydroxyethoxy)pyridin-2-yl]-5H,6H,7H-cyclopenta[d]pyrimidin-4-yl}(methyl)amino)-N-(6-methoxypyridazin-3-yl)acetamide], the pEC50 is listed as 7.8.

With `Cc1ccc(NC(=O)CN(C)c2nc(-c3cc(OCCO)ccn3)nc3c2CCC3)nn1` [Compound 286, 2-({2-[4-(2-hydroxyethoxy)pyridin-2-yl]-5H,6H,7H-cyclopenta[d]pyrimidin-4-yl}(methyl)amino)-N-(6-methylpyridazin-3-yl)acetamide], the pEC50 was 7.5.

For the compound `COc1ccnc(-c2nc3c(c(N(C)CC(=O)Nc4ccn(C)c(=O)c4)n2)CCC3)c1` [Compound 287, 2-{[2-(4-methoxypyridin-2-yl)-5H,6H,7H-cyclopenta[d]pyrimidin-4-yl](methyl)amino}-N-(1-methyl-2-oxo-1,2-dihydropyridin-4-yl)acetamide], the pEC50 is 7.2.

On to `CN(CC(=O)Nc1ccc(C(F)(F)F)nc1)c1nc(-c2cc3cn[nH]c3cn2)nc2c1CCC2` [Compound 288, 2-[methyl(2-{1H-pyrazolo[3,4-c]pyridin-5-yl}-5H,6H,7H-cyclopenta[d]pyrimidin-4-yl)amino]-N-[6-(trifluoromethyl)pyridin-3-yl]acetamide], for which the pEC50 was found to be 7.1.

On to `CN(CC(=O)Nc1ccc(F)cc1)c1nc(-c2cc3cn[nH]c3cn2)nc2c1CCC2` [Compound 289, N-(4-fluorophenyl)-2-[methyl(2-{1H-pyrazolo[3,4-c]pyridin-5-yl}-5H,6H,7H-cyclopenta[d]pyrimidin-4-yl)amino]acetamide], for which the pEC50 amounted to 7.5.

With `COc1cnc(NC(=O)CN(C)c2nc(-c3cc(OCCO)ccn3)nc3c2CCC3)cn1` [Compound 290, 2-({2-[4-(2-hydroxyethoxy)pyridin-2-yl]-5H,6H,7H-cyclopenta[d]pyrimidin-4-yl}(methyl)amino)-N-(5-methoxypyrazin-2-yl)acetamide], the pEC50 is listed as 7.6.

On to `Cc1ncc(NC(=O)CN(C)c2nc(-c3cc(OCCO)ccn3)nc3c2CCC3)cn1` [Compound 291, 2-({2-[4-(2-hydroxyethoxy)pyridin-2-yl]-5H,6H,7H-cyclopenta[d]pyrimidin-4-yl}(methyl)amino)-N-(2-methylpyrimidin-5-yl)acetamide], for which the pEC50 is reported as 7.3.

Turning to `Cc1cccc(NC(=O)CN(C)c2nc(-c3cc(OCCO)ccn3)nc3c2CCC3)c1` [Compound 292, 2-({2-[4-(2-hydroxyethoxy)pyridin-2-yl]-5H,6H,7H-cyclopenta[d]pyrimidin-4-yl}(methyl)amino)-N-(3-methylphenyl)acetamide], the pEC50 was 8.1.

`CN(CC(=O)Nc1cccc(F)c1)c1nc(-c2cc(OCCN)ccn2)nc2c1CCC2` [Compound 293, 2-({2-[4-(2-aminoethoxy)pyridin-2-yl]-5H,6H,7H-cyclopenta[d]pyrimidin-4-yl}(methyl)amino)-N-(3-fluoropehnyl)acetamide]: the negative logarithm of the EC50 (pEC50) turned out to be 7.9.

Take `CN(C)CCOc1ccnc(-c2nc3c(c(N(C)CC(=O)Nc4cccc(F)c4)n2)CCC3)c1` [Compound 294, 2-[(2-{4-[2-(dimethylamino)ethoxy]pyridin-2-yl}-5H,6H,7H-cyclopenta[d]pyrimidin-4-yl)(methyl)amino]-N-(3-fluorophenyl)acetamide]: the pEC50 was determined as 7.9.

`COc1cnc(NC(=O)CN(C)c2nc(-c3cc(OCCO)ccn3)nc3c2CCC3)nc1` [Compound 295, 2-({2-[4-(2-hydroxyethoxy)pyridin-2-yl]-5H,6H,7H-cyclopenta[d]pyrimidin-4-yl}(methyl)amino)-N-(5-methoxypyrimidin-2-yl)acetamide]: the pEC50 turned out to be 7.

Turning to `CN(CC(=O)Nc1cnn(C)c1)c1nc(-c2cc(OCCO)ccn2)nc2c1CCC2` [Compound 296, 2-({2-[4-(2-hydroxyethoxy)pyridin-2-yl]-5H,6H,7H-cyclopenta[d]pyrimidin-4-yl}(methyl)amino)-N-(1-methyl-1H-pyrazol-4-yl)acetamide], the pEC50 is given as 7.6.

For the compound `Cc1ccc(NC(=O)CN(C)c2nc(-c3cc4cc(CO)ccc4cn3)nc3c2CCC3)cn1` [Compound 297, 2-({2-[6-(hydroxymethyl)isoquinolin-3-yl]-5H,6H,7H-cyclopenta[d]pyrimidin-4-yl}(methyl)amino)-N-(6-methylpyridin-3-yl)acetamide], the pEC50 worked out at 7.5.

Compound `Cc1ccc(NC(=O)CN(C)c2nc(-c3ccc(F)cn3)nc3c2CCC3)cn1` [Compound 298, 2-{[2-(5-fluoropyridin-2-yl)-5H,6H,7H-cyclopenta[d]pyrimidin-4-yl](methyl)amino}-N-(6-methylpyridin-3-yl)acetamide] had a pEC50 of 6.1.

Regarding `CN(CC(=O)NC(C)(C)C)c1nc(-c2ccc(F)cn2)nc2c1CCC2` [Compound 299, N-tert-butyl-2-{[2-(5-fluoropyridin-2-yl)-5H,6H,7H-cyclopenta[d]pyrimidin-4-yl](methyl)amino}acetamide], the pEC50 worked out at 6.1.

Compound `CN(CC(=O)NC(C)(C)C)c1nc(-c2ccc(Cl)cn2)nc2c1CCC2` [Compound 300, N-tert-butyl-2-{[2-(5-chloropyridin-2-yl)-5H,6H,7H-cyclopenta[d]pyrimidin-4-yl](methyl)amino}acetamide] showed a pEC50 of 6.2.

`CN(CC(=O)NC(C)(C)C)c1nc(-c2cc3scnc3cn2)nc2c1CCC2` [Compound 301, N-tert-butyl-2-[methyl(2-{[1,3]thiazolo[4,5-c]pyridin-6-yl}-5H,6H,7H-cyclopenta[d]pyrimidin-4-yl)amino]acetamide]: the pEC50 amounted to 6.9.

`Cc1ccc(NC(=O)CN(C)c2nc(-c3cc(OCC(C)(C)O)ccn3)nc3c2CCC3)cn1` [Compound 302, 2-({2-[4-(2-hydroxy-2-methylpropoxy)pyridin-2-yl]-5H,6H,7H-cyclopenta[d]pyrimidin-4-yl}(methyl)amino)-N-(6-methylpyridin-3-yl)acetamide] had a pEC50 of 7.9.

Consider `Cc1cc(-c2nc3c(c(N(C)CC(=O)NC(C)(C)C)n2)CCC3)ncc1F` [Compound 303, N-tert-butyl-2-{[2-(5-fluoro-4-methylpyridin-2-yl)-5H,6H,7H-cyclopenta[d]pyrimidin-4-yl](methyl)amino}acetamide], for which the pEC50 worked out at 6.4.

Regarding `COc1ccc(NC(=O)CN(C)c2nc(-c3cc4scnc4cn3)nc3c2CCC3)cn1` [Compound 304, N-(6-methoxypyridin-3-yl)-2-[methyl(2-{[1,3]thiazolo[4,5-c]pyridin-6-yl}-5H,6H,7H-cyclopenta[d]pyrimidin-4-yl)amino]acetamide], the pEC50 stood at 6.8.

`C[C@H](C(=O)NC(C)(C)C)N(C)c1nc(-c2cc(OC3COC3)ccn2)nc2c1CCC2` [Compound 305] showed a pEC50 of 7.8.

As for `COc1cc(-c2nc3c(c(N(C)CC(=O)Nc4ccc(C)nc4)n2)CCC3)ncc1F` [Compound 306, 2-{[2-(5-fluoro-4-methoxypyridin-2-yl)-5H,6H,7H-cyclopenta[d]pyrimidin-4-yl](methyl)amino}-N-(6-methylpyridin-3-yl)acetamide], the pEC50 is recorded as 6.6.

Turning to `CN(CC(=O)Nc1cccc(F)c1)c1nc(-c2cc(OCC3(O)CC3)ccn2)nc2c1CCC2` [Compound 307, N-(3-fluorophenyl)-2-[(2-{4-[(1-hydroxycyclopropyl)methoxy]pyri-din-2-yl}-5H,6H,7H-cyclopenta[d]pyrimidin-4-yl)(methyl)amino]acetamide], the pEC50 is recorded as 7.4.
